The values below come from patent US10195209B2, “Anti-huLRRC15 antibody drug conjugates and methods for their use” (AbbVie Inc., priority 2015, dated 2019).

The subject of data set [1] is CTG-0241 (human osteosarcoma) patient-derived xenograft. In words: CTG-0241 patient-derived osteosarcoma xenograft model. In kind it is in vivo, nu/nu mice. The text has this: Female nu/nu mice were implanted unilaterally on the left flank region with CTG-0241 tumor fragments harvested from host animals, each implanted from a specific passage lot. When tumors reached approximately 250-350 mm^3, animals were matched by tumor volume into treatment and control groups and dosing initiated (Day 0).
In FIG. 18B, female nu/nu mice were implanted unilaterally on the left flank region with CTG-0241 tumor fragments harvested from host animals, each implanted from a specific passage lot. When tumors reached approximately 250-350 mm^3, animals were matched by tumor volume into treatment and control groups and dosing initiated (Day 0). Dosing with isotype mAb or ADCs was performed IP at 6 mg/kg on a Q4Dx6 (one dose given every 4 days for a total of 6 doses), while cisplatin was dosed IP Q7Dx3 (once every 7 days for a total of 3 doses) at 7.5 mg/kg, doxorubicin was dosed intravenously (IV) once daily at 1 mg/kg for 5 days, gemcitabine was dosed IP Q3Dx4 (every 3 days for a total of 4 doses) at 80 mg/kg, and ifosfamide was dosed IP QDx3 (one dose given every day for a total of 3 doses) at 120 mg/kg.
(In xenograft studies the graft and the host belong to different species.)

For data set [2], the system named is CTG-1095 (human osteosarcoma) patient-derived xenograft. The experiment in a line: CTG-1095 patient-derived osteosarcoma xenograft model. Format: in vivo, NSG mice. The text has this: Female NSG mice were implanted unilaterally on the left flank region with CTG-1095 tumor fragments harvested from host animals, each implanted from a specific passage lot. When tumors reached approximately 250-350 mm^3, animals were matched by tumor volume into treatment and control groups and dosing initiated (Day 0).
In FIG. 18C, female NSG mice were implanted unilaterally on the left flank region with CTG-1095 tumor fragments harvested from host animals, each implanted from a specific passage lot. When tumors reached approximately 150-300 mm^3, animals were matched by tumor volume into treatment and control groups and dosing initiated (Day 0). Dosing with isotype mAb or ADCs was performed IP at 12 mg/kg Q4Dx6 (one dose given every 4 days for a total of 6 doses), while cisplatin was dosed intraperitoneally Q7Dx2 (once every 7 days for a total of 2 doses) at 7.5 mg/kg.
In FIG. 18D, female NSG mice were implanted unilaterally on the left flank region with CTG-1095 tumor fragments harvested from host animals, each implanted from a specific passage lot. When tumors reached approximately 200 mm^3, animals were matched by tumor volume into treatment and control groups and dosing initiated (Day 0). Dosing with isotype mAb or ADCs was performed IP at 6 mg/kg on a Q4Dx6 (one dose given every 4 days for a total of 6 doses), while gemcitabine was dosed IP Q3Dx4 (every 3 days for a total of 4 doses) at 80 mg/kg.

Data set [3] concerns U118MG (glioblastoma) xenograft tumors. In words: U118MG glioblastoma xenograft model. In kind it is in vivo, SCID mice. Here is the method: For the experiments, ten million cells (U118MG) that were grown in vitro were inoculated subcutaneously per mouse into the right flank of female SCID mice. Tumors were size matched at˜100 mm^3, and dosed intraperitoneally (IP) Q6Dx2 (1 dose given every 6 days for a total of 2 doses) as shown in FIG. 14A. Measurements of the length (L) and width (W) of the tumors were taken via electronic caliper and the volume was calculated according to the following equation: V=L×W^2/2.
For the experiment, U118MG human glioblastoma cells were grown in vitro, and were inoculated subcutaneously (10 million cells per mouse) into the right flank of female SCID mice. Tumors were size matched at ˜150 mm^3, antibodies and immunoconjugates were administered IP Q4Dx6 (one dose give every 4 days for a total of 6 doses) at 10 or 6 mg/kg, respectively. At Day 165 post sizematch when tumors had regrown to ˜450 mm^3, animals were retreated with huM25-vcMMAE-DAR4 IP Q4Dx3 (one dose given every 4 days for a total of 3 doses) at 6 mg/kg.
Four preparations of huM25-vcMMAE that differed in their relative DAR profile (E2, E2/E4, E4 or DAR4) were tested for efficacy in U118MG tumors. […]
The potency of anti-huLRRC15 ADCs as compared to current standards of care was assessed in xenograft model U118MG (glioblastoma), and patient-derived xenograft models CTG-0241 osteosarcoma) and CTG-1095 (osteosarcoma). […]

Data set [4] concerns U118MG (glioblastoma) cells. In words: In vitro cell killing assay (Cell TiterGlo), U118MG. In kind it is cell-based, human. Particulars: 4 days, percent cell viability by Cell TiterGlo. The procedure: (§1) In the in vitro cell killing assays, cells are seeded at 500-3000 cells per well into 96-well plates with varying concentrations ([…]) of antibodies and ADCs. The cells are incubated for 4 days in culture and then the percent cell viability relative to untreated cells is determined using Cell TiterGlo™ which measures ATP content within the treated cells.
Preparation of the huM25-PBD-DAR2 ADC was accomplished according to the procedure described in Example 8.
FIG. 13E depicts the potent in vitro 4-day cell killing ability of anti-huLRRC15 ADC huM25-PBD-DAR2 as compared with the isotype control PBD DAR2 ADC in U118MG (glioblastoma) cells.
On the technique in general: ATP-based viability assays read luminescence as a measure of living cells.

Data set [5] deals with RPMI-7951 (melanoma) cells. The experiment in a line: In vitro cell killing assay (Cell TiterGlo), RPMI-7951. Format: cell-based, human. Particulars: RPMI-7951, 4 days. The procedure:
as §1

Data set [6] deals with G292 clone A141B1 (osteosarcoma) cells. In words: In vitro cell killing assay (Cell TiterGlo), G292 clone A141B1. In kind it is cell-based, human. Particulars: G292 clone A141B1, 4 days. Here is the method: as §1
The subject of data set [7] is EBC-1 (squamous NSCLC) cells. In words: In vitro cell killing assay (Cell TiterGlo), huLRRC15-negative EBC-1. In kind it is cell-based, human. Particulars: huLRRC15-negative EBC-1, 4 days. The procedure: as §1
Data set [8] in a line: Rat tolerability experiment. In kind it is in vivo, Sprague Dawley wild type rats. Conditions: single IV dose at MMAE equivalent levels, FIG. 16A. Here is the method: The safety profiles of E2, E4 and E2/E4 preparations of huM25-vcMMAE ADCs were assessed in a rat tolerability experiment (FIGS. 16A, 16B). For the assay, Sprague Dawley wild type rats were dosed with a single IV dose at MMAE equivalent levels of each antibody drug conjugate. […] Double the protein antibody dose was delivered with equal amounts of MMAE, and improved survival for E2 was seen over E4. Fewer deaths occurred in the animals dosed with E2 than E4 ADCs, and the deaths that did occur happened later on Day 8. Broad drug distribution DAR4 has an MTD of 20 mg/kg.

The test system of data set [9] is human BM-MSC (Lonza) mesenchymal stem cells. The experiment in a line: In vitro cell killing, human BM-MSC treated with TGFβ. Format: cell-based. Particulars: 10 ng/mL TGFβ, same doses.
Where [10] appears, read: gemcitabine alone, 80 mg/kg IP Q3Dx4, FIG. 18D.
[11] abbreviates: ADC alone, 6 mg/kg IP Q4Dx6, FIG. 18D.

For the molecule `N.N.[Cl][Pt][Cl]` [cisplatin, reference compound], the TGImax in [1] (7.5 mg/kg IP Q7Dx3, FIG. 18B) is recorded as 44%; in data set [2] (7.5 mg/kg IP Q7Dx2, FIG. 18C), 70%.

In the case of `COc1cccc2c1C(=O)c1c(O)c3c(c(O)c1C2=O)C[C@@](O)(C(=O)CO)C[C@@H]3O[C@H]1C[C@H](N)[C@H](O)[C@H](C)O1` [doxorubicin], the TGImax in [1] (1 mg/kg IV once daily for 5 days, FIG. 18B) came out at 27%.

Turning to `Nc1ccn([C@@H]2O[C@H](CO)[C@@H](O)C2(F)F)c(=O)n1` [gemcitabine, reference compound], the TGImax in data set [1] (80 mg/kg IP Q3Dx4, FIG. 18B) was 64%; in [2] (setting [10]), 84%. Further, the TGD in data set [2] (setting [10]) is given as 241%.

For the molecule `O=P1(NCCCl)OCCCN1CCCl` (stereo not shown) [ifosfamide], in [1] (120 mg/kg IP QDx3, FIG. 18B), the TGImax came out at 10%.

With `Cn1nnc2c(C(N)=O)ncn2c1=O` [temozolomide, reference compound], the TGImax in data set [3] (20 mg/kg orally daily for first 5 days of a 7-day cycle, two cycles, FIG. 18A) turned out to be 67%.

Regarding “huM25-vcMMAE-E2: huM25-vcMMAE ADC preparation enriched in DAR2 by hydrophobic interaction chromatography”, the “in vitro cell killing compared with isotype ADC” value in [4], in [5] and in data set [6] was “superior to that seen with non-targeting isotype-vcMMAE ADCs” in each case. Also, in data set [7], the “in vitro cell killing” value is “minimal cancer cell killing”. Further, the “maximum tumor growth inhibition (TGImax)” value in data set [3] (MMAE-equivalent doses IP every seven days for three doses, FIG. 17) was ≥ 84%. For the same molecule, the TGImax is listed as 91% in data set [1] (6 mg/kg IP Q4Dx6, FIG. 14B/18B); 87% in data set [2] (12 mg/kg IP Q4Dx6, FIG. 14C/18C); 75% in data set [2] (setting [11]). Also, the TGD in data set [2] (setting [11]) amounted to 193%. Moreover, the “death, percentage of animals” value in data set [8] is 25%.

B1: huAD208.4.1-PBD-DAR2: anti-LRRC15 PBD ADC of huAD208.4.1, cross-reactive to human and mouse LRRC15 (conjugate)
VH: EVQLVQSGAEVKKPGSSVKVSCKASGFTFTDYYIHWVKQAPGQGLEWIGLVYPYIGGTNYNQKFKGKATLTVDTSTTTAYMEMSSLRSEDTAVYYCARGDNKYDAMDYWGQGTTVTVSS
VL: DIVLTQSPDSLAVSLGERATINCRASQSVSTSSYSYMHWYQQKPGQPPKLLIKYASSLESGVPDRFSGSGSGTDFTLTISSLQAEDVAVYYCEQSWEIRTFGGGTKVEIK
With B1, the “in vitro cell killing effect compared with isotype-PBD-DAR2” value in data set [9] was “higher cell killing effect than isotype-PBD-DAR2”.
